“And” between values parts separate entries of the source, which are not always exact repeats. Identical values can stand only once. “Also recorded” adds a separate entry of the source. Like-named read-outs stand apart in the source and are kept apart here.
Assays:
[1] = tested on: cultured rat hippocampal neurons; assay: Excitotoxic assay in hippocampal cultures, NMDA challenge, trypan blue exclusion; type: cell-based; conditions: 200 μM NMDA and 20 μM glycine for 20 min; for protection from NMDA receptor-mediated cell death: 10 μM, cell death by NMDA alone = 100%
Experimental: (§1) Mixed hippocampal neuron/glia primary cultures were employed to assess the neuroprotective activities of the identified lead against NMDA receptor-mediated excitotoxic cell death. Primary culture of rat hippocampal neurons were prepared as previously described (Ferrer-Montiel A. V., et al., Nat. Biotechnol., 16(3):286–91, 1998; Schinder A. F., et al.; J. Neurosci., 16(19):6125–33, 1996). In brief, hippocampi from E17–E19 rat embryos were first taken out and incubated at 4° C. in a saline (BSS) containing (mM): 137 NaCl, 3.5 KCl, 0.4 KH2PO4, 0.33 Na2HPO4.7H2O, 5 TES, and 10 glucose, pH 7.4. Hippocampi were then incubated in 0.25% trypsin (1×) solution from Hyclone at 37° C. for 15 min. Tissues were then washed and resuspended in minimal essential medium (Earle's salt) supplemented with 10% heat-inactivated horse serum (Hyclone), 10% fetal bovine serum (Hyclone), 1 mM […], 22 mM glucose, 20U/ml penicillin and 20 ug/ml streptomycin. Digested hippocampi were eventually dissociated by pipetting through a Pasteur pipette. Cells were plated at a density of 5×10^4 cells/cm^2.
Neurons cultured 14–17 days were used for the excitotoxic assays. Cultured medium was first removed and rinsed with BSS supplemented with 1 mM CaCl2, and 20 μM glycine. Neurons were challenged with 200 μM NMDA in the absence and presence of […] for 20 min at room temperature. The insults were terminated by removing the BSS containing NMDA. To reduce the excitotoxic effect due to the residual NMDA, the culture medium was supplemented with 20 μM MK-801. Cell cultures were returned to the incubator (37° C., 5% CO2). Cell death was assessed 20–24 hours after the challenge with trypan blue (0.04%) exclusion assays. Fraction of dead cells in cultures treated with control buffer (8±3%, n=2000) was subtracted as background.
NMDA insult alone caused significant cell death of 45±6% (n=2000). Neuroprotective activities as described in the Detailed Description of the Invention were expressed as percentage of net cell death in the absence and presence of 10 μM of the known NMDA receptor blockers and the identified compound. Cell death elicited by NMDA alone was considered as 100%. The assays were repeated in 4 separated occasions with different culture preparations.

NMDA receptor, S616G = NMDA receptor, S616G (Homo sapiens, UniProt Q05586+Q12879, S616G); assay: Block of NMDA receptor with S616G mutation in oocytes; type: cell-based; conditions: versus wild type
Experimental: (§2) In contrast, mutations at N614G, N615G and S616G in the M2 segment had no effect on NBTA binding.
(§3) Oocytes of stage V and VI were surgically removed from the ovaries of […] anesthetized with 0.4% ethyl 3-amino-benzoate methanesulfonic acid-Clusters of oocytes were incubated with 2 mg/ml collagenase (Life Technologies, Gaithersburg, Md.) for 1 hour 20 min in Ca^2+-free solution comprised of (mM) 82.5 NaCl, 2.5 KCl, 1 MgCl2, 5 HEPES, pH 7.4 with vigorous agitation to remove the follicular cell layer. Oocytes were then washed extensively with the Ca^2+-free solution to remove the collagenase. Oocytes were eventually incubated in Barth's solution consisted of (in mM): 96 NaCl, 2 mM KCl, 1.8 CaCl2, 1 MgCl2, 5 HEPES supplemented with 100U/ml penicillin and 100 ug/ml streptomycin, pH 7.4 at 17° C. Oocytes were injected with 5–15 ng of cRNA encoding NR1 or its mutant premixed with three-fold amount of cRNA encoding NR2A.
(§4) On days two to six following injection of cRNAs, whole oocyte currents were recorded with standard two-electrode voltage-clamp. […] The blocking activities of the library were assessed at 10 μM (assuming the molecular weight is ˜500). […] Blocking activity of the mixture is expressed as fraction of response blocked by the mixture. […]

[2] = target: T1, non-NMDA glutamate receptor GluR1 (Homo sapiens, UniProt P42261); assay: Two-electrode voltage-clamp block of GluR1 expressed in Xenopus oocytes; type: cell-based
T1 construct: expressed in transfected cells
From the text: Recombinant NMDA receptor subunits, NR1 (Planells-Cases R, et al., Proc. Natl. Acad. Sci. USA, 90(11):5057–61, 1993) and NR2A (Le Bourdelles B, et al., J. Neurochem., 62(6):2091–8, 1994) was used for screening the dipeptidomimetic combinatorial library. cDNAs of NR1 and NR2A were linearized with NOT1. cRNAs encoding NR1 and NR2A were synthesized from the linearized cDNAs templates according to manufacturer specifications (Ambion). NR1 mutant (N616Q) was used to examine the site of action of the identified lead. The NR1A mutants were linearized with NOT1 and use of T7 for sense. cDNA of human glutamate receptor/GluR1 (Sun W., et al., Proc. Natl. Acad. Sci. USA, 89:1443–1447, 1992) was linearized with Hind III and the use of T3 promoter for the synthesis of its […]. cDNAs were quantified by spectroscopy and the quality were assessed by gel electrophoresis. […]
as §4

[3] = target: NMDA receptor, NR1 mutant (N616Q) (Homo sapiens, UniProt Q05586+Q12879, N616Q); assay: Block of NMDA receptor with NR1 mutant N616Q in oocytes; type: cell-based; conditions: versus wild type
[4] = target: NMDA receptor, N614G (NR2 mutant) (Homo sapiens, UniProt Q05586+Q12879, N614G); assay: Block of NMDA receptor with N614G mutation in oocytes; type: cell-based; conditions: versus wild type
Experimental: as §2, §3, §4

[5] = target: NMDA receptor, NR2A tryptophan 606 to leucine (Homo sapiens, UniProt Q05586+Q12879, W606L); assay: Block of NMDA receptor with NR2A tryptophan 606 to leucine substitution in oocytes; type: cell-based; conditions: versus wild type
Experimental: as §2, §3, §4

NMDA receptor, NR1 N616R = NMDA receptor, NR1 N616R (Homo sapiens, UniProt Q05586+Q12879, N616R); assay: Block of NMDA receptor with NR1 N-site mutant N616R in oocytes; type: cell-based; conditions: versus wild type
[6] = target: NMDA receptor, N616Q (NR1 mutant) with N614G (NR2 mutant) (Homo sapiens, UniProt Q05586+Q12879, N614G/N616Q); assay: Block of NMDA receptor with coexpressed N616Q (NR1 mutant) and N614G (NR2 mutant) in oocytes; type: cell-based; conditions: versus N616Q alone
Experimental: as §2, §3, §4

NMDA receptor, N615G = NMDA receptor, N615G (Homo sapiens, UniProt Q05586+Q12879, N615G); assay: Block of NMDA receptor with N615G mutation in oocytes; type: cell-based; conditions: versus wild type
Experimental: as §2, §3, §4

[7] = tested on: cultured hippocampal neurons; assay: Kainate induced neuronal cell death in hippocampal cultures; type: cell-based, rat; conditions: 20 μM CNQX, 10 μM MK-801, 10 μM memantine or 10 μM NBTA
Experimental: FIG. 7. NBTA protects cultured hippocampal neurons from NMDA receptor-mediated excitotoxic cell death. Trypan blue exclusion assays of (A) control neurons and neurons exposed to 200 μM NMDA in the absence (B) or presence of 10 μM memantine (C); and in the presence of 10 μM NBTA (D). (E) Normalized cell death in the absence and presence of the lead. (F) Neuronal death induced by kainate in the absence or presence of 20 μM CNQX, 10 μM MK-801, 10 μM memantine or 10 μM NBTA. Data are mean±s.e., n=2000.
To evaluate the specificity of the neuroprotective effect of NBTA<its activity against kainate induced neuronal cell death was assessed.
as §1

[8] = target: T2, NMDA receptors (NR1/NR2A) (Homo sapiens, UniProt Q05586+Q12879); assay: Two-electrode voltage-clamp block of recombinant NMDA receptors expressed in Xenopus oocytes; type: cell-based
Experimental: Oocytes of stage V and VI were surgically removed from the ovaries of Xenopus oocytes anesthetized with 0.4% ethyl 3-amino-benzoate methanesulfonic acid-Clusters of oocytes were incubated with 2 mg/ml collagenase (Life Technologies, Gaithersburg, Md.) for 1 hour 20 min in Ca^2+-free solution comprised of (mM) 82.5 NaCl, 2.5 KCl, 1 MgCl2, 5 HEPES, pH 7.4 with vigorous agitation to remove the follicular cell layer. Oocytes were then washed extensively with the Ca^2+-free solution to remove the collagenase. Oocytes were eventually incubated in Barth's solution consisted of (in mM): 96 NaCl, 2 mM KCl, 1.8 CaCl2, 1 MgCl2, 5 HEPES supplemented with 100U/ml penicillin and 100 ug/ml streptomycin, pH 7.4 at 17° C. Oocytes were injected with 5–15 ng of cRNA encoding NR1 or its mutant premixed with three-fold amount of cRNA encoding NR2A.
On days two to six following injection of cRNAs, whole oocyte currents were recorded with standard two-electrode voltage-clamp. All electrophysiological studies, unless otherwise stated, were performed in Ba^2+/flufenamic-Ringer's solution (in mM: 10 HEPES pH7.5, 115 NaCl, 2.8 KCl, 2.0 BaCl2, 0.1 flufenamic, 0.1 niflumic acid) at ambient temperature as previously described (Ostresh J. M., et al., J. Org. Chem., 63:8622–8623, 1998; Nefzi A., et al., Tetrahedron, 55:335–344, 1999). Both current and voltage electrodes were filled with 3M KCl and have a tested resistance of 0.5–1 MOhm. The blocking activities of the library were assessed at 10 μM (assuming the molecular weight is ˜500). […] Inward currents were elicited from a holding potential of −80 mV except where indicated. […] Blocking activity of the mixture is expressed as fraction of response blocked by the mixture. Dose-response curves were fitted to the Hill equation:
[formula] where y is the ratio of current in the presence and presence of blocker, [x] is the blocker concentration, and IC50 and nH represent the concentration blocks 50% of response and Hill coefficient, respectively. Current-voltage relationships were measured first in the absence and then in the presence of a given concentration of lead at a specified membrane holding potential, and the ratio of these currents was plotted as a function of the holding potential. Analysis of the voltage dependent block current was performed according to the model proposed by Woodhull (Woodhull A. M., J. Gen. Physiol., 61:687–708, 1973). Data were fitted with the equation according to Zarei and Dani (Zarei M. M. and Dani J. A., J. Gen. Physiol., 1103(2):231–48, 1994):
[formula] where Ib and Ic are currents recorded during the blockade and control, respectively; [B] is the concentration of the blocker; Kd is the dissociation constant of the blocker at 0 mV; δ is the fraction of the membrane field sensed by the blocker as it binds to its site; V is the command voltage; R is the gas constant; T is the absolute temperature; F is the Faraday's number; z is the valence of the blocker.

[9] = target: T2, NMDA receptors (NR1/NR2A); conditions: literature values; cited from earlier work

T2 sequence (Q12879 23-1464, other chains not shown): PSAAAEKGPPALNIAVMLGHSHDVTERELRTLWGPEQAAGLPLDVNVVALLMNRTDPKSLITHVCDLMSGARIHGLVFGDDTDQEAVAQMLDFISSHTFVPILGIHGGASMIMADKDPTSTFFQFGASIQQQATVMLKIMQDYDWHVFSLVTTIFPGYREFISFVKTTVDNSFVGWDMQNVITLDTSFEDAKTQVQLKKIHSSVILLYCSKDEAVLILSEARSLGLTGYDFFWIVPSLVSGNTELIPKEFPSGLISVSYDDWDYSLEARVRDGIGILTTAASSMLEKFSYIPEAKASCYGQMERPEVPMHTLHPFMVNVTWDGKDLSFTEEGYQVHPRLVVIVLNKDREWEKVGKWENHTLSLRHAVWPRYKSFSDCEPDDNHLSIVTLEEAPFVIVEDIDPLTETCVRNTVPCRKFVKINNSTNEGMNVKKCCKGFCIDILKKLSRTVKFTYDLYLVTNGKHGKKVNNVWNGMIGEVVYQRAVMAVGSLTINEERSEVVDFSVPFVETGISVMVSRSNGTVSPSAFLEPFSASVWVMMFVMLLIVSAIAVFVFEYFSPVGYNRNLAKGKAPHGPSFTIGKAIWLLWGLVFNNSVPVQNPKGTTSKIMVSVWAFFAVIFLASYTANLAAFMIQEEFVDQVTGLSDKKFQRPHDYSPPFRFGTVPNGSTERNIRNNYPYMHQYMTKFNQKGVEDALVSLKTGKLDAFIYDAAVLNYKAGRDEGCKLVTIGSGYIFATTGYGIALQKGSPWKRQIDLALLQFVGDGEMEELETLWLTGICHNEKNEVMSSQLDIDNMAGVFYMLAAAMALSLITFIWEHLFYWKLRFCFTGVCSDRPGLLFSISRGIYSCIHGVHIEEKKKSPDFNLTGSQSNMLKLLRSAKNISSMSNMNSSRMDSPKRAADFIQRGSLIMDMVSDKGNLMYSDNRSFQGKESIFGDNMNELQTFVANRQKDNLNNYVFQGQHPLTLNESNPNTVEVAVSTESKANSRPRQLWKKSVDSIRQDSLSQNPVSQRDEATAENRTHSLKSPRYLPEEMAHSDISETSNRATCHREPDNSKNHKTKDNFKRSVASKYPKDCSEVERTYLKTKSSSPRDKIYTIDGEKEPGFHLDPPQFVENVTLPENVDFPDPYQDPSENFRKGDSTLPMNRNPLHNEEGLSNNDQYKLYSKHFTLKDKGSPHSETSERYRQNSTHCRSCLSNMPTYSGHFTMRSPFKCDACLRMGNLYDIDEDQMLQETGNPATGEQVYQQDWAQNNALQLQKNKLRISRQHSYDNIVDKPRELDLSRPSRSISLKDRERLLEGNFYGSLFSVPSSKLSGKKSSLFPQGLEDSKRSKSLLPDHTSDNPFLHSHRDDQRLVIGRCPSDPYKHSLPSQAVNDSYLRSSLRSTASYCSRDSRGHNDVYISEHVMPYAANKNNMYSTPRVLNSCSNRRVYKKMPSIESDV
T1 sequence (P42261 19-906): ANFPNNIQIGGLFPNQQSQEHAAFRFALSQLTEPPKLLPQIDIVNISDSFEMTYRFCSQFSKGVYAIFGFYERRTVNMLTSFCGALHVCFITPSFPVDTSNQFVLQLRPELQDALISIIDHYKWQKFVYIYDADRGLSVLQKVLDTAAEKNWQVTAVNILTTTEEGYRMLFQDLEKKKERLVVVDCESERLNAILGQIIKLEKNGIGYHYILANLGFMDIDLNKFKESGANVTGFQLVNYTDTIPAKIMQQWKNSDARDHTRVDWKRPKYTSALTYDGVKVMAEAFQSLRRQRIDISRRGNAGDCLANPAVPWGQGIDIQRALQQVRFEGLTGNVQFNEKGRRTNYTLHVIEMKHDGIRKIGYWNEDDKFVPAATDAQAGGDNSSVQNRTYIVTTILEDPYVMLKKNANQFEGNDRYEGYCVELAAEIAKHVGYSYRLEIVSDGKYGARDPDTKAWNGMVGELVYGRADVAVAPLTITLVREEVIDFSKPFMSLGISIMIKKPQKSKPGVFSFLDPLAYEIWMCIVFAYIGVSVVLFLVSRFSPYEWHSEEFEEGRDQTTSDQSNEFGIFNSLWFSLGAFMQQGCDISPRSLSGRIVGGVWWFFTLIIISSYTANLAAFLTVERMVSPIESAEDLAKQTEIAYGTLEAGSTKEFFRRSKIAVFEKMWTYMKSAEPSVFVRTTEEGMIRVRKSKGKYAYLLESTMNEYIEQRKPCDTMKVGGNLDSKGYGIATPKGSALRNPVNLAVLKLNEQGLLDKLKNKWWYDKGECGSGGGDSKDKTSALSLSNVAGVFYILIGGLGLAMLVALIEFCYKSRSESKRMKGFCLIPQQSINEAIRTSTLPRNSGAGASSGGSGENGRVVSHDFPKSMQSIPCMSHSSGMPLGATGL
NMDA receptor, NR1 N616R, sequence (Q12879 23-1464, other chains not shown): as the sequence (Q12879 23-1464, other chains not shown) above

In the case of `CN[C@H](CC(=O)O)C(=O)O` [NMDA, N-methyl-D aspartate], the “cell death induced by NMDA” value ([1]; no blocker) is reported as 50±3% and 45±6%.

With `CCC(C)C(N)CN(Cc1ccccc1)C(CNCc1ccccc1)Cc1ccc(O)cc1` (stereo not shown) [NBTA] the “protection from NMDA receptor-mediated cell death” value (from here on “protection”) [1] was 83±2%, the “effect of S616G mutation on binding” value (NMDA receptor, S616G) was “no effect” and the “block of GluR1” value ([2]; 1 μM) was “not”. The “effect on GluR1 / AMPA receptors” value ([2]; even at 1 mM / mM concentration range) was “no effect at all”, the “change of blocking activity by replacement of N616 for glutamine” value [3] was “only slightly reduces” and the “effect of N614G mutation on binding” value [4] was “no effect”. For the same compound, the “reduction of blocking activity by tryptophan to leucine substitution in NR2A” value [5] was 4.7 fold, the “reduction of blocking activity by N616R substitution” value (NMDA receptor, NR1 N616R) was 275 fold and the “binding with coexpressed N616Q and N614G compared with N616Q alone” value [6] was “similar”. The “effect of N615G mutation on binding” value (NMDA receptor, N615G) was “no effect”, the “effect on neuronal cell death induced by kainate” value (“effect … by kainate” for short) [7] was “no effect” and the “use dependence of NMDA receptor block” value ([8]; 0.1 μM, repetitive pulses of glutamate (200 μM) and glycine (20 μM), -80 mV) was “progressive block; also recorded: progressive blockade”. For the same compound, the “block of NMDA current” value ([8]; 1 μM compound, -80 mV) was 70±3% and ~95%, the IC50 ([8]; Hill equation fit, n=6, read-out: IC50, wild-type NMDA receptors (NR1/NR2A)) was 80 nM and the “δ, fraction of the membrane field sensed by the blocker” value (“δ, fraction” below) ([8]; Woodhull model of voltage-dependent block) was 0.56. The “fraction of transmembrane electric field traversed to reach binding site” value ([8]; from δ) was ~56% and the “voltage dependence of NMDA current reduction” value ([8]; voltage-ramp protocol, 200 μM L-glutamic acid plus 20 μM glycine) was “voltage-dependent”.

In the case of `C[C@]12N[C@H](Cc3ccccc31)c1ccccc12` [MK-801], the “protection” value [1] is reported as 89±1% and the “effect … by kainate” value [7] is reported as “protect neurons as well, though not as effectively as CNQX”.

In the case of `CC12CC3CC(C)(C1)CC(N)(C3)C2` [memantine, 1-amino-3,5-dimethyladamantane], the “protection” value [1] is given as 93±1%, the “δ, fraction” value [9] is given as ~0.77 and the “effect … by kainate” value [7] is given as “protect neurons as well, though not as effectively as CNQX”.

For `N#Cc1cc2c(cc1[N+](=O)[O-])=NC(=O)C(=O)N=2` [CNQX, 6-cyano-7 nitroquinoxaline-2,3-dione], the “effect … by kainate” value [7] was “protects neurons”.

In the case of `[Mg+2]` [Mg^2+], the “δ, fraction” value [9] is given as ~0.77.

Reference: US7022882B2, “NMDA receptor channel blocker with neuroprotective activity” (priority 2000, dated 2006)
